Laboratory results as given in patent publication US20260055081A1, “Metal Chelator Compounds, Coordination Complexes, and Methods of Preparation and Use Thereof” (University of Puerto Rico, priority 2022, published 2026).

Legend:
[1] = target: T1, Fe(III)-saturated serum transferrin (Fe2-sTf) (Homo sapiens, UniProt P02787); test: Scavenging of Fe(III) from Fe(III)-saturated serum transferrin; assay type: biochemical; conditions: 22.5 μM Fe2-sTf with 45 μM DefNEtTrp, pH 7.4, 25° C., monitored over 3 days
T1 construct: purchased Sigma T2036
Experimental: The ability of DefNEtTrp to scavenge Fe(ITT) from Fe(ITI)-saturated serum transferrin(Fe2-sTf) was also examined. Fe2-sTf was prepared by reacting micromolar amounts of apo-sTf with 4 mol equiv of in situ prepared [Fe(citrate)2]^5− in 20 mM Hepes buffer (pH 7.4) containing 0.1 M NaCl and 27 mM NaHCO3. The sample was extensively dialyzed by rapid spin dialysis to remove the excess unbound Fe(III). The Fe(III) content was determined by the ferrozine colorimetric assay modified from a literature protocol and by monitoring the Fe2-STf-(CO3)2 LMCT band (λmax 465 nm; ε=5200 M^−1 cm^−1) (Viollier 2000, The ferrozine method revisited: Fe(II)/Fe(III) determination in natural waters. Appl. Geochem. 15 (6): 785-790). To 22.5 μM Fe2-sTf was reacted 45 μM DefNEtTrp (diluted in the same protein buffer while maintaining 5% DMF) in quadruplicate at 25° C. The reaction solutions were left to equilibrate and the LMCT absorbance was monitored after 24 h and 72 h. The reaction solutions were extensively dialyzed and then the protein concentrations were quantified by the Bradford colorimetric assay. The UV-Vis spectra of the washed protein samples were collected.

[2] = test system: Jurkat Leukemia cell line; test: Jurkat cell viability (MTT assay); assay type: cell-based; conditions: 72 h
Experimental: Jurkat cell culturing and cell viability studies. Jurkat cells are nonadherent cells, and they were cultured in an RPMI-1640 media (supplemented with 10% FBS (v/v) and 1% antibiotic solution (v/v) of penicillin/streptomycin) in non-tissue-culture treated 25 mL flasks according to the known protocol provided by the supplier ATCC. The cell passaging was done at 70% confluency by taking 3 mL of cells and diluting to 25 mL of fresh media. The cells were incubated at 37° C. in 5% CO2 atmosphere.
Jurkat cytotoxicity of DefNEtTrp (6), Def (5), NEtTrp (4), Trp, and 1:1 combinations of 5 with 4 and 5 with Trp was determined by the colorimetric 3-(4,5-dimethylthiazol-2-yl)-2,5-diphenyltetrazolium bromide (MTT) assay. Incubation conditions were the same in all the steps. Cells in 80-95% confluence (grown in standard circular tissue culture dishes, BD Falcon) were separately seeded into 96-well plates using phenol red free RPMI-1640 media (containing 10% FBS and 1% streptomycin/penicillin) in a volume of 50 μL at a concentration of 5.0×10^5 cells/mL. Following this procedure, the Jurkat cells were treated immediately. Stock solution of the compounds were first prepared in DMF at 5 mM and stored at 4° C. for up to 30 days. The stock solution was diluted to specific concentrations using 1×PBS (0.2-20 μM) while DMF was maintained at 1% (v/v). 50 μL of diluted solutions were added in all cell containing wells with at least six replicates per concentration (n=6). The final percentage (v/v) of DMF was 0.5%. The cells were also co-treated with 5 with 4 and 5 with Trp in a 1:1 mole equivalent ratio over the same concentration range but as a combined concentration of both compounds. Control wells in the plates consisted of one lane of cells treated with media alone including 0.5% DMF (v/v) as the measure of 100% viable cell growth in the media. Another control lane consisted of no cells with media including 0.5% DMF (v/v) as a measure of the background with no viable cells. The plates were incubated for 72 h. At 4 h before completion of the incubation time, 25 μL of MTT solution (sterile filtered 5 mg/mL solution, dissolved in 1×PBS buffer) was added to each well. During addition of the MTT solution, the plates were protected from light. After completion a 50 μL portion of 4% (w/v) SDS solution (sterile filtered, dissolved in Tris buffer 1M, pH=10) was added to each well and incubated to solubilize formazan crystals after MTT cell labeling. The absorbance of each well was measured at 570 nm (absorbance of the formazan product at pH >10.0) and 800 nm (as a background correction) using a Tecan plate reader. The absorbance of all wells was compared to the absorbance of the untreated cells with the MTT set as the 100% viable cell standard and the absorbance of the no cell control set as the 0% viable cell standard. Nonlinear regression in GraphPad Prism 8 was utilized to fit the growth curve over the various drug concentrations to determine the half-maximal inhibitory concentration (IC50). All cell viability experiments, including non-Jurkat cells, were repeated at least once for biological duplicates. To confirm cell death at the higher concentration dosages of the compounds and combinations, dead cells were blue stained with trypan blue and visually inspected under the microscope.

[3] = test system: Non-Small Cell Lung cancer cell lines; test: NCI 60 five-dose screen, non-small cell lung panel; assay type: cell-based, human; conditions: 48 h
Experimental: National Cancer Institute Cancer Cell Line (NCI 60) Screen of DefNEtTrp. Details of the methodology for NCI 60 cell line screening are described at http://dtp.nci.nih.gov/branches/btb/ivclsp.html. The cells, grown in supplemented RPMI-1640 medium, are seeded in 96 well plates at an appropriate density and incubated for 24 h. The test compounds are dissolved in DMSO and incubated with cells at a single dose of 10.0 μM for 48 h. The assay is terminated by addition of cold trichloroacetic acid, and the cells are fixed and stained with sulforhodamine B. Bound stain is solubilized, and the absorbance is read on an automated plate reader. […] Using the seven absorbance measurements [time zero, […], control growth, (C), and test growth in the presence of drug at the five concentration levels (Tf)], the percentage growth was calculated at each of the drug concentrations levels as: [(Tf−Ti)/(C−Ti)]×100 for concentrations for which Tf≥Ti and [(Tf−Ti)/Ti]×100 for concentrations for which Tf<Ti. Three-dose response parameters (GI50, TGI, and LC50) were calculated for each of the experimental agents in five dose assay. […] The total growth inhibition (TGI) was calculated from Tf=Ti, which was the drug concentration resulting in total growth inhibition and signified the cytostatic effect. […]

T1 sequence (P02787 20-698): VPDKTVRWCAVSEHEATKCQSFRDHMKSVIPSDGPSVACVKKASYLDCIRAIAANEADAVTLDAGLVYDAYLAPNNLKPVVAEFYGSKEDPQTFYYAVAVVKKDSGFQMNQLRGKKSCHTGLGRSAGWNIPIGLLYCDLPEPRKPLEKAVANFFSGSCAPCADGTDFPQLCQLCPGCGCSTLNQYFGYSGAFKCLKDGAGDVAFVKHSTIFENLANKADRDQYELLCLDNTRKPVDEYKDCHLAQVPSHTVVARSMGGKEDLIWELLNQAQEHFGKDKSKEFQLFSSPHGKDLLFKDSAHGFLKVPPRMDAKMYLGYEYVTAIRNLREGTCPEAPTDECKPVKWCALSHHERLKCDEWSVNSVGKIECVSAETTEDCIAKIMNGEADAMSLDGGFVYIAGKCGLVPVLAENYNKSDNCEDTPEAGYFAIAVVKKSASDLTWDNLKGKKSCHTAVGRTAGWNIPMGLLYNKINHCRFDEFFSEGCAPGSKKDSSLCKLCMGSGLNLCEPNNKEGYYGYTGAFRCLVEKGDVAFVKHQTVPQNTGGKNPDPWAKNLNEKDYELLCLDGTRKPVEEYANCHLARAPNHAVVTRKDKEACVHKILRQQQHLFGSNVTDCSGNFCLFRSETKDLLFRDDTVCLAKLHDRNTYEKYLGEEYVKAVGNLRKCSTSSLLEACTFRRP

## Nc1cccnc1/C=N/NC(=S)NCCNC(=O)c1ccc(-n2nc(-c3ccccc3O)nc2-c2ccccc2O)cc1 [DefNEtTrp, deferasirox nitrogen ethyl triapine]
[1]
  removal of Fe(III) from Fe2-sTf (LMCT absorbance 465 nm): no metal dissociation
[2]; Homo sapiens, Jurkat cell line, MTT
  IC50: 770 ± 60 nM
[2]; Jurkat
  cytotoxic effect compared with Def, NEtTrp and Trp in single drug and combination drug treatments: superior cytotoxic effect
[3]; cell lines in which TGI was observed
  TGI (calculated average): 6330 nM
[3]; Homo sapiens, read-out: GI50 (calculated average)
  GI50: 730 nM
